# Results from PubChem BioAssay AID330 (DTP/NCI, 2004).
# Values joined by “and” are separate entries in the source; they are usually repeats but may differ in a detail not shown here. Equal values may be shown once. Inconclusive results and toxic doses are left out.
# Tested on: P388 leukemia ip, CD2F1 mice, survival T/C
# Experiment: NCI In Vivo Anticancer Drug Screen. Data for tumor model P388 Leukemia (intraperitoneal) in CD2F1 (CDF1) mice
# Settings: endpoint: median survival time, higher = longer survival
# How it was run: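 Mice carrying the transplanted tumor received test compound or vehicle. Survival was recorded in each group, and the value is the treated-group measurement divided by that of the vehicle-treated control group.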
# [1] = dose: 50.0 mg/kg/injection, schedule: Q01DX005 (ip), vehicle: Klucel (hydroxypropylcellulose) (HPC)
# [2] = dose: 100.0 mg/kg/injection, schedule: Q01DX005 (ip), vehicle: Klucel (hydroxypropylcellulose) (HPC)
# [3] = dose: 200.0 mg/kg/injection, schedule: Q01DX005 (ip), vehicle: Klucel (hydroxypropylcellulose) (HPC)
# [4] = dose: 50.0 mg/kg/injection, schedule: Q01DX009 (ip), vehicle: saline with Tween-80
# [5] = dose: 100.0 mg/kg/injection, schedule: Q01DX009 (ip), vehicle: saline with Tween-80
# [6] = dose: 200.0 mg/kg/injection, schedule: Q01DX009 (ip), vehicle: saline with Tween-80
# [7] = dose: 6.25 mg/kg/injection, schedule: Q01DX009 (ip), vehicle: saline with Tween-80
# [8] = dose: 60.0 mg/kg/injection, schedule: Q01DX005 (ip), vehicle: saline with Tween-80
# [9] = dose: 120.0 mg/kg/injection, schedule: Q01DX005 (ip), vehicle: saline with Tween-80
# [10] = dose: 240.0 mg/kg/injection, schedule: Q01DX005 (ip), vehicle: saline with Tween-80
# [11] = dose: 12.5 mg/kg/injection, schedule: Q01DX009 (ip), vehicle: saline with Tween-80
# [12] = dose: 12.5 mg/kg/injection, schedule: Q01DX009 (ip), vehicle: saline
# [13] = dose: 25.0 mg/kg/injection, schedule: Q01DX009 (ip), vehicle: saline with Tween-80
# [14] = dose: 25.0 mg/kg/injection, schedule: Q01DX009 (ip), vehicle: saline
# [15] = dose: 50.0 mg/kg/injection, schedule: Q01DX009 (ip), vehicle: saline
# [16] = dose: 100.0 mg/kg/injection, schedule: Q01DX009 (ip), vehicle: saline
smiles,measurement,setting,value
O=C(NCc1ccco1)Nc1ccccc1[N+](=O)[O-],T/C,[1],96 % of control
same,T/C,[2],95 % of control
same,T/C,[3],95 % of control
CC(C)(C)N=C(CCN1CCOCC1)Nc1ccccc1Cl,T/C,[4],113 % of control
same,T/C,[5],106 % of control
same,T/C,[6],109 % of control
C=C(C)CN(CCC#N)CC(=C)C,T/C,"dose: 50.0 mg/kg/injection, schedule: Q01DX005 (ip), vehicle: saline with Tween-80",102 % of control
same,T/C,"dose: 100.0 mg/kg/injection, schedule: Q01DX005 (ip), vehicle: saline with Tween-80",105 % of control
same,T/C,"dose: 200.0 mg/kg/injection, schedule: Q01DX005 (ip), vehicle: saline with Tween-80",101 % of control
COc1ccc(CCNC(C)Cc2ccc(OC)c(OC)c2)cc1OC (stereo not given),T/C,"dose: 3.13 mg/kg/injection, schedule: Q01DX009 (ip), vehicle: water",94 % of control
same,T/C,"dose: 6.25 mg/kg/injection, schedule: Q01DX009 (ip), vehicle: water",92 % of control
same,T/C,"dose: 12.5 mg/kg/injection, schedule: Q01DX009 (ip), vehicle: water",96 % of control
same,T/C,"dose: 25.0 mg/kg/injection, schedule: Q01DX009 (ip), vehicle: water",100 % of control
same,T/C,"dose: 50.0 mg/kg/injection, schedule: Q01DX009 (ip), vehicle: water",99 % of control
O=C1C(Br)=C(Br)C(=O)C1(Br)Br,T/C,[7],118 % of control
same,T/C,"dose: 6.25 mg/kg/injection, schedule: Q04DX003 (ip), vehicle: saline with Tween-80",100 % of control
same,T/C,"dose: 12.5 mg/kg/injection, schedule: Q04DX003 (ip), vehicle: saline with Tween-80",100 % of control
same,T/C,"dose: 25.0 mg/kg/injection, schedule: Q04DX003 (ip), vehicle: saline with Tween-80",120 % of control
N#C/C=C1\NC(=O)CS1,T/C,[4],95 % of control
same,T/C,[5],100 % of control
same,T/C,[6],95 % of control
CNC(=O)Nc1nccs1,T/C,[4],105 % of control
same,T/C,[5],96 % of control
same,T/C,[6],97 % of control
CCN(CC)c1ccc(CCc2ccc(N(CC)CC)c3cccnc23)c2ncccc12,T/C,[1],99 % of control
same,T/C,[2],112 % of control
same,T/C,[3],94 % of control
O=C1CCC(Cc2ccc(Cl)cc2Cl)C(=O)N1 (stereo not given),T/C,[8],96 % of control
same,T/C,[9],94 % of control
same,T/C,[10],87 % of control
CC(C)SCNc1ncnc2c1ncn2C1OC(CO)C(O)C1O (stereo not given),T/C,"dose: 100.0 mg/kg/injection, schedule: Q04DX002 (ip), vehicle: saline with Tween-80",98 % of control
COC(=O)c1ccc(N)c2c(N)ccc(C(=O)OC)c12,T/C,[8],98 % of control
same,T/C,[9],114 % of control
same,T/C,[10],97 % of control
CCc1ccc(N=Cc2ccc(OC(=O)c3ccc(OC)cc3)c(OC)c2)cc1,T/C,[8],96 % of control
same,T/C,[9],94 % of control
same,T/C,[10],92 % of control
CCOC(=O)C(Cc1c[nH]c2ccccc12)NC(=O)[C@@]1(O)[C@H](O)[C@]2(CC)C=CCN3CC[C@@]4(c5cc([C@@]6(C(=O)OC)C[C@@H]7CN(CCc8c6[nH]c6ccccc86)C[C@](O)(CC)C7)c(OC)cc5N(C)[C@@H]14)[C@@H]32 (stereo not given in full),T/C,"dose: 1.0 mg/kg/injection, schedule: Q01DX001 (ip), vehicle: saline",108 % of control and 109 % of control
same,T/C,"dose: 2.0 mg/kg/injection, schedule: Q01DX001 (ip), vehicle: saline",108 % of control and 112 % of control
same,T/C,"dose: 4.0 mg/kg/injection, schedule: Q01DX001 (ip), vehicle: saline",109 % of control and 116 % of control
same,T/C,"dose: 8.0 mg/kg/injection, schedule: Q01DX001 (ip), vehicle: saline",115 % of control and 118 % of control
same,T/C,"dose: 32.0 mg/kg/injection, schedule: Q01DX001 (ip), vehicle: saline",153 % of control and 157 % of control
O=C1OC(=O)[C@H]2[C@@H]1[C@H]1C=C[C@@H]2OC1=O,T/C,[11],123 % of control
same,T/C,[12],103 % of control
same,T/C,[13],108 % of control
same,T/C,[14],100 % of control
same,T/C,[4],105 % of control
same,T/C,[15],99 % of control and 92 % of control
same,T/C,[5],101 % of control
same,T/C,[16],100 % of control
same,T/C,"dose: 200.0 mg/kg/injection, schedule: Q01DX009 (ip), vehicle: saline",98 % of control
O=C(O)CCC1NC(=O)NC1=O (stereo not given),T/C,"dose: 50.0 mg/kg/injection, schedule: Q01DX001 (ip), vehicle: saline",100 % of control
same,T/C,"dose: 100.0 mg/kg/injection, schedule: Q01DX001 (ip), vehicle: saline",103 % of control
same,T/C,"dose: 200.0 mg/kg/injection, schedule: Q01DX001 (ip), vehicle: saline",104 % of control
same,T/C,"dose: 400.0 mg/kg/injection, schedule: Q01DX001 (ip), vehicle: saline",94 % of control
CC(=O)OC1CC2(C)C(c3ccoc3)CC3OC32C2(C)C(=O)C(O)=C3C(C)(C)C(=O)C=CC3(C)C12 (stereo not given),T/C,"dose: 3.0 mg/kg/injection, schedule: Q01DX009 (ip), vehicle: Klucel (hydroxypropylcellulose) (HPC)",96 % of control
same,T/C,"dose: 6.0 mg/kg/injection, schedule: Q01DX009 (ip), vehicle: Klucel (hydroxypropylcellulose) (HPC)",100 % of control
same,T/C,"dose: 12.0 mg/kg/injection, schedule: Q01DX009 (ip), vehicle: Klucel (hydroxypropylcellulose) (HPC)",100 % of control
same,T/C,"dose: 24.0 mg/kg/injection, schedule: Q01DX009 (ip), vehicle: Klucel (hydroxypropylcellulose) (HPC)",99 % of control
CN(C)CCCSc1nnc(-c2ccc3c(c2)OCO3)o1,T/C,"dose: 50.0 mg/kg/injection, schedule: Q04DX002 (ip), vehicle: water",106 % of control
same,T/C,"dose: 100.0 mg/kg/injection, schedule: Q04DX002 (ip), vehicle: water",100 % of control
same,T/C,"dose: 200.0 mg/kg/injection, schedule: Q04DX002 (ip), vehicle: water",101 % of control
CCCC(CC(=O)O)c1c2c(c(O)c3c1OC(C)C(C)C3=O)C=CC(C)(C)O2 (stereo not given),T/C,"dose: 60.0 mg/kg/injection, schedule: Q01DX005 (ip), vehicle: Klucel (hydroxypropylcellulose) (HPC)",97 % of control
same,T/C,"dose: 120.0 mg/kg/injection, schedule: Q01DX005 (ip), vehicle: Klucel (hydroxypropylcellulose) (HPC)",103 % of control
same,T/C,"dose: 240.0 mg/kg/injection, schedule: Q01DX005 (ip), vehicle: Klucel (hydroxypropylcellulose) (HPC)",93 % of control
CNC(=O)Nc1nc2ccccc2[nH]1,T/C,"dose: 20.0 mg/kg/injection, schedule: Q04DX003 (ip), vehicle: other",100 % of control
same,T/C,"dose: 20.0 mg/kg/injection, schedule: Q04DX003 (oral), vehicle: other",100 % of control
same,T/C,"dose: 40.0 mg/kg/injection, schedule: Q04DX003 (ip), vehicle: other",95 % of control
same,T/C,"dose: 40.0 mg/kg/injection, schedule: Q04DX003 (oral), vehicle: other",100 % of control
same,T/C,"dose: 50.0 mg/kg/injection, schedule: Q04DX003 (ip), vehicle: Klucel (hydroxypropylcellulose) (HPC)",100 % of control (2×) and 109 % of control
same,T/C,"dose: 80.0 mg/kg/injection, schedule: Q04DX003 (ip), vehicle: other",102 % of control
same,T/C,"dose: 80.0 mg/kg/injection, schedule: Q04DX003 (oral), vehicle: other",100 % of control
same,T/C,"dose: 100.0 mg/kg/injection, schedule: Q04DX003 (ip), vehicle: Klucel (hydroxypropylcellulose) (HPC)",105 % of control and 111 % of control and 116 % of control
same,T/C,"dose: 160.0 mg/kg/injection, schedule: Q04DX003 (ip), vehicle: other",111 % of control
same,T/C,"dose: 160.0 mg/kg/injection, schedule: Q04DX003 (oral), vehicle: other",104 % of control
same,T/C,"dose: 200.0 mg/kg/injection, schedule: Q04DX003 (ip), vehicle: Klucel (hydroxypropylcellulose) (HPC)",112 % of control and 118 % of control
same,T/C,"dose: 320.0 mg/kg/injection, schedule: Q04DX003 (ip), vehicle: other",119 % of control
same,T/C,"dose: 320.0 mg/kg/injection, schedule: Q04DX003 (oral), vehicle: other",102 % of control
same,T/C,"dose: 400.0 mg/kg/injection, schedule: Q04DX003 (ip), vehicle: Klucel (hydroxypropylcellulose) (HPC)",109 % of control and 121 % of control
same,T/C,"dose: 640.0 mg/kg/injection, schedule: Q04DX003 (ip), vehicle: other",154 % of control
same,T/C,"dose: 640.0 mg/kg/injection, schedule: Q04DX003 (oral), vehicle: other",109 % of control
CN(C)c1cc(O)c(-n2c3cc(=O)c(N(C)C)cc-3nc3ccccc32)cc1O,T/C,"dose: 3.12 mg/kg/injection, schedule: Q01DX009 (ip), vehicle: saline",100 % of control
same,T/C,[7],93 % of control
same,T/C,"dose: 6.25 mg/kg/injection, schedule: Q01DX009 (ip), vehicle: saline",96 % of control
same,T/C,[11],90 % of control
same,T/C,[12],100 % of control
same,T/C,[13],91 % of control
same,T/C,[14],115 % of control
same,T/C,[15],120 % of control
same,T/C,[16],90 % of control
